Experimental data taken from patent US6855512B2, “Methods for identifying inhibitors of cytochrome P450RAI” (Allergan, Inc., priority 2000, dated 2005).

Tests used:
RARβ [1] = target: T1, RARβ (Homo sapiens, UniProt P10826); assay: chimeric receptor transactivation assay, RARβ; assay type: cell-based; details: EC50 line of EC50/(EFFICACY)/Kd, read-out: RAR β EC50
T1 sequence (P10826 183-417 limits assumed): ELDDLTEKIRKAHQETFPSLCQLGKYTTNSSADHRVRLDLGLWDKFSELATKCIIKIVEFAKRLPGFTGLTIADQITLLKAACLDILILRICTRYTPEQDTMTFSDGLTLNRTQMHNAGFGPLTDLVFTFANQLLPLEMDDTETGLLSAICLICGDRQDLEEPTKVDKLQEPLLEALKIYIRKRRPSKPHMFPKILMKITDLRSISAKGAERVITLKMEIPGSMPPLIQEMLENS
Description: (§1) Assays described below measure the ability of a compound to bind to, and/or activate various retinoid receptor subtypes. When in these assays a compound binds to a given receptor subtype and activates the transcription of a reporter gene through that subtype, then the compound is considered an agonist of that receptor subtype. […] In the below described assays the ability of the compounds to bind to RARα, RARβ, RARγ, RXRα, RXRβ and RXRγ receptors, and the ability or inability of the compounds to activate transcription of a reporter gene through these receptor subtypes can be tested.
(§2) The results obtained in this assay are expressed in EC50 numbers, as they are also in the chimeric receptor transactivation assay. The results of ligand binding assay are expressed in Kd numbers.

RARβ [2] = target: T2, RARβ (Homo sapiens, UniProt P10826); assay: ligand binding assay, RARβ; details: Kd line of EC50/(EFFICACY)/Kd, K = thousand, read-out: RAR β Kd
T2 sequence (P10826 1-455): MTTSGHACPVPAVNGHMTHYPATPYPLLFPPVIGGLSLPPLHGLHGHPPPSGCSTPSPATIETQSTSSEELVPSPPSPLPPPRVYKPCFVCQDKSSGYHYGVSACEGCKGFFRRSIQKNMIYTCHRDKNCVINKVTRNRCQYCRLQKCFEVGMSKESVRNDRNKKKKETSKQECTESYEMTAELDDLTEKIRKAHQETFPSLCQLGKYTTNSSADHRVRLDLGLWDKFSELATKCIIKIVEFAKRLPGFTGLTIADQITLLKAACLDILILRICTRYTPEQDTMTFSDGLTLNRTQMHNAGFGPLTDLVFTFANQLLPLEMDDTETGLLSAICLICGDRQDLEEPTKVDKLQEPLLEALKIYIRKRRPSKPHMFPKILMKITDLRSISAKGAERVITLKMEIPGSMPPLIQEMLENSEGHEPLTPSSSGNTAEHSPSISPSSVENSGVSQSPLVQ
Description: as §1, §2

EC50 (RARβ [1]): > 10000 nM
Kd (RARβ [2]): 1100 nM
SMILES: CC1(C)CC(C)(C)c2cc(C#Cc3ccc(C(=O)O)cc3)ccc2O1 [Compound 201]
